According to ChEMBL document CHEMBL3399952, “Design and synthesis of novel anti-tuberculosis agents from the celecoxib pharmacophore” (Bioorg Med Chem, 2015):
Active and inactive are the calls of the source.

Assays:
Type in all cases: functional, organism-based
[1] = system: Mycobacterium tuberculosis; experiment: Antimycobacterial activity against isoniazid, ethambutol-resistant Mycobacterium tuberculosis Strain 11J assessed as reduction in growth measured at 2.5 uM after 90 hrs by optical density-based broth culture growth assay
[2] = system: Mycobacterium tuberculosis; experiment: Antimycobacterial activity against isoniazid, streptomycin-resistant Mycobacterium tuberculosis Strain 13E assessed as reduction in growth measured at 2.5 uM after 90 hrs by optical density-based broth culture growth assay
[3] = system: Mycobacterium tuberculosis; experiment: Antimycobacterial activity against rifampicin, streptomycin-resistant Mycobacterium tuberculosis Strain 13B assessed as reduction in growth measured at 2.5 uM after 90 hrs by optical density-based broth culture growth assay

Measured: inhibition

CNC(=O)CCc1cc(-c2ccc(-c3ccc(C(F)(F)F)cc3)cc2)n(-c2ccc(NC(=O)c3cn(C)cn3)cc2)n1
active: all assays above

CNC(=O)CCc1cc(-c2ccc(-c3ccc(C(F)(F)F)cc3)cc2)n(-c2ccc(NC(=O)c3ccnc(C)c3)cc2)n1
active: all assays above

CNC(=O)CCc1cc(-c2ccc(-c3ccc(C(F)(F)F)cc3)cc2)n(-c2ccc(NC(=O)c3ccc(N)cc3)cc2)n1
active: all assays above

CNC(=O)CCc1cc(-c2ccc(-c3ccc(C(F)(F)F)cc3)cc2)n(-c2ccc(NC(=O)c3ccncc3Cl)cc2)n1
active: all assays above

CNC(=O)CCc1cc(-c2ccc(-c3ccc(C(F)(F)F)cc3)cc2)n(-c2ccc(NC(=O)c3ccncc3)cc2)n1
active: all assays above

CNC(=O)CCc1cc(-c2ccc(-c3ccc(C(F)(F)F)cc3)cc2)nn1-c1ccc(NC(=O)c2ccncc2)cc1
active: all assays above
